Consider one compound from ChEMBL document CHEMBL5370643, “Discovery of MK-1468: A Potent, Kinome-Selective, Brain-Penetrant Amidoisoquinoline LRRK2 Inhibitor for the Potential Treatment of Parkinson's Disease” (J Med Chem, 2023).

The target in series [1] is Leucine-rich repeat serine/threonine-protein kinase 2 (Homo sapiens) (UniProt Q5S007). In words: Inhibition of LRRK2 in human PBMC using LRRKtide peptide as substrate assessed as Ser935 dephosphorylation preincubated with compound for 15 mins followed by substrate addition and measured after 90 mins in presence of ATP by TR-FRET assay. As to conditions: time 105.0 min. Format: cell-based. For orientation: TR-FRET usually uses a lanthanide donor and a delayed reading to cut background.
Leucine-rich repeat serine/threonine-protein kinase 2 (Homo sapiens), sequence (Q5S007 whole entry): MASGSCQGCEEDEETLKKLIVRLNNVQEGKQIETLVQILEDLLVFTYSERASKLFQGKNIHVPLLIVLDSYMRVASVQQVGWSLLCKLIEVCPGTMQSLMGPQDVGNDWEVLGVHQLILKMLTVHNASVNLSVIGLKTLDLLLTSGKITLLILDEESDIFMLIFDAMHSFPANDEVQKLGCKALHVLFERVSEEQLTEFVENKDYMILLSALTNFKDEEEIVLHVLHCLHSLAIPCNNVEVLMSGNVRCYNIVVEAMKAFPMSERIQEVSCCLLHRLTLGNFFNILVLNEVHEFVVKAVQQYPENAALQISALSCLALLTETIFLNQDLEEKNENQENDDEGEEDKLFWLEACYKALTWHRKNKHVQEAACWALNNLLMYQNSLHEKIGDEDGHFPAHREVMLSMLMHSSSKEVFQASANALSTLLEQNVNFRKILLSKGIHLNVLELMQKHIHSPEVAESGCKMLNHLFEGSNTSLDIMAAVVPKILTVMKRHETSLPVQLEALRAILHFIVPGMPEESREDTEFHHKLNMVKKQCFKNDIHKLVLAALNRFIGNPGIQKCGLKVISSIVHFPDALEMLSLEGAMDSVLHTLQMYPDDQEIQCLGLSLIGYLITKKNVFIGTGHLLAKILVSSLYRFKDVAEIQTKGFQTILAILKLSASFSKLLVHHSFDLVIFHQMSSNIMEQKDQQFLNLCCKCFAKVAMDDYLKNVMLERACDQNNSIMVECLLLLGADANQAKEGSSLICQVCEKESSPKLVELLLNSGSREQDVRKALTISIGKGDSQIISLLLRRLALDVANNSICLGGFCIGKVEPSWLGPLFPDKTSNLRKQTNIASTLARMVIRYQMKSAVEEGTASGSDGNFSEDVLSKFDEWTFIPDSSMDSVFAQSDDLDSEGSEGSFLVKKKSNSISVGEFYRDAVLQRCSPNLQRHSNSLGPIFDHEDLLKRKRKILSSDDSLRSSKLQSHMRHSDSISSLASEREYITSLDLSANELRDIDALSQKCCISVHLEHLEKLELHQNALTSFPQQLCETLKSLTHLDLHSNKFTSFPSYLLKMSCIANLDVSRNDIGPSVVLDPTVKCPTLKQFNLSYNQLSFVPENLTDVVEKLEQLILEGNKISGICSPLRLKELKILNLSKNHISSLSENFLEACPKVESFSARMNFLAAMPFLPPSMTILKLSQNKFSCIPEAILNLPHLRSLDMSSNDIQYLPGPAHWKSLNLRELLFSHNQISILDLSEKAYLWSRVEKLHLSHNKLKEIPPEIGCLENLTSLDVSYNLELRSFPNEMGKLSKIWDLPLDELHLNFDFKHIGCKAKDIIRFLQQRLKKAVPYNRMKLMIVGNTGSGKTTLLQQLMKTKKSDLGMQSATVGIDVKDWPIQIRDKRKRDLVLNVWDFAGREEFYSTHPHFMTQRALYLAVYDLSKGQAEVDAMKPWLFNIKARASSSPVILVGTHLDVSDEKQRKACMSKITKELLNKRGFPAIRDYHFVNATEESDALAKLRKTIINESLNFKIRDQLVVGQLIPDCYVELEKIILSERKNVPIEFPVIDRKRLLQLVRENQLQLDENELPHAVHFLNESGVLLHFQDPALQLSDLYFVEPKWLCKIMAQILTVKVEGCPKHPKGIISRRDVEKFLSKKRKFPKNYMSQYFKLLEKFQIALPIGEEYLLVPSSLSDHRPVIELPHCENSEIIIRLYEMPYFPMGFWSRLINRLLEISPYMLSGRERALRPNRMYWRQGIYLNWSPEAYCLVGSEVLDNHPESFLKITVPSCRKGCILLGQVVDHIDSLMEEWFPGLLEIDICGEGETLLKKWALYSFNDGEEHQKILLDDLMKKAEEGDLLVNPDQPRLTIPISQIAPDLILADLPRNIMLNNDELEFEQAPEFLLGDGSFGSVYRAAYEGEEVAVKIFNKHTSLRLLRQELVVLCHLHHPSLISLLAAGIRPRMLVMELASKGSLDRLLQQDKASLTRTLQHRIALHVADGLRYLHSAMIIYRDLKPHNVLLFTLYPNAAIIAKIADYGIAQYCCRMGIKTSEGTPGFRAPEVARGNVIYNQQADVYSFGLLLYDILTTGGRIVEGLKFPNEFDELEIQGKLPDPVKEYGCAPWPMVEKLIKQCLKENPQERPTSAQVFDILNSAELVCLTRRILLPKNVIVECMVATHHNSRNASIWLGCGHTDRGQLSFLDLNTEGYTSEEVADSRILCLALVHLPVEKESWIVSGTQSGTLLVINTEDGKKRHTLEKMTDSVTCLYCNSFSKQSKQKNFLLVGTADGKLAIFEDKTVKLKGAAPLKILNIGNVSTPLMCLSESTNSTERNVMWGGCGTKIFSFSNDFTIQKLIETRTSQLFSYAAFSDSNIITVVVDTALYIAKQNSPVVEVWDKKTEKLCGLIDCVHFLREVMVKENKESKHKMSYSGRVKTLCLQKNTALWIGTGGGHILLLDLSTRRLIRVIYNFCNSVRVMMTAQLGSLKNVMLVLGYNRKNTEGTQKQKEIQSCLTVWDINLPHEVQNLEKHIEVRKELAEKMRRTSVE

A short description of series [2]: Total clearance in Wistar-Han rat at 3 mg/kg, iv measured after 24 hrs by LC-MS/MS analysis. As to conditions: in vivo. Format: ADME, organism-based.
Series [3] can be described thus: MRT in rhesus monkey at 3 mg/kg, iv measured after 24 hrs by LC-MS/MS analysis. Particulars: in vivo. In kind it is ADME, organism-based, Macaca mulatta.
Series [4] in a line: AUC in Wistar-Han rat at 40 mg/kg, po administered once daily for 7 days. Further details: dose 40 mg/kg, time 7 day, route po. In kind it is ADME, organism-based. As to conditions: in vivo.

For orientation: clearance means the rate of elimination divided by the concentration. By MRT is commonly meant the average time that molecules of a dose stay in the body. One may read the AUC as concentration integrated over time. Turning to `C[C@@]1(N2CCN(c3cc4cc(NC(=O)[C@H]5CC56CCOCC6)ncc4cc3Cl)CC2)COC[C@@H]1O`, the fIC50 in series [1] was determined as 2.8 nM. The compound further yielded a clearance in series [2] of 56 mL/min/kg. This compound also had an MRT in series [3] of 3.6 h. In series [4], this compound had an AUC at 168 h of 8.1 µM·h.
